Test results as given in patent publication US20150250782A1, “Methods and Compositions for Hypotensive Resuscitation” (Pharmazz, Inc., priority 2012, published 2015).

What was measured:
hemorrhaged rats [1] = assay: Norepinephrine required to maintain MAP at 70 mmHg in hemorrhaged rats; type: in vivo, rat; conditions: 0.05 mg/kg
Experimental: (§1) In another study, the effect of centhaquin resuscitation on the amount of norepinephrine (NE) required to maintain mean arterial pressure (MAP) and the time by which MAP falls back to 35 mmHg in hemorrhaged rats was determined. Male, adult rats were anesthetized with urethane and a pressure catheter SPR-320 was placed in the femoral artery, and a pressure-volume catheter SPR-869 was placed in the left ventricle. Hemorrhage was induced by withdrawing blood and MAP was maintained at 35 mmHg for 30 minutes followed by resuscitation.
(§2) Two sets of experiments were performed. First, the amount of NE required to maintain MAP at 70 mmHg in normal saline (NS) or centhaquin (0.05 mg/kg) treated rats (volume equal to blood loss) was determined. Second, the time by which MAP fell back to 35 mmHg in rats treated with 3% hypertonic saline (HS) or centhaquin (0.05 mg/kg) (volume one-fifth of blood loss) was determined. […] In a second set of experiments, hemorrhaged rats were resuscitated with either HS or centhaquin (one-fifth the volume of blood loss).

hemorrhaged rats [2] = assay: Time by which MAP falls back to 35 mmHg in hemorrhaged rats, low volume resuscitation; type: in vivo, rat
Experimental: as §1, §2

α2 adrenergic receptors = assay: Centhaquin resuscitation with and without α2 adrenergic antagonists: arterial blood hematocrit, pH, gases, electrolytes, lactate; type: in vivo, rat; design: pCO2 / pO2 / Na+ / K+ / Ca++ / Lactate: unit not given beside the values
dog femoral artery = conditions: 10 and 20 μg locally into femoral artery; Srimal, Mason et al. 1990; cited from earlier work
[3] = 0.05 mg/kg, one-fifth the volume of blood loss

Q: With `Cc1cccc(N2CCN(CCc3ccc4ccccc4n3)CC2)c1` [centhaquin, 2-[2-(4-(3-methyphenyl)-1-piperazinyl)ethyl]-quinoline] as the molecule, how does the Blood lactate (hemorrhaged rats [1]; 60 min following resuscitation, volume equal to blood loss) read?
A: 1.65 ± 0.23 mmol/L

Q: What about the “amount of NE needed in each rat to maintain MAP at 70 mmHg” value (hemorrhaged rats [1]; first 60 min of resuscitation) of the same molecule?
A: 17.5 µg

Q: What about the “blood lactate lower compared to hypertonic saline” value (hemorrhaged rats [2]; [3]) of the same molecule?
A: 44%

Q: What about the “time by which MAP fell back to 35 mmHg” value (hemorrhaged rats [2]; [3]) of the same molecule?
A: 148 ± 15 min

Q: What about the “survival after blood transfusion” value (hemorrhaged rats [2]; blood transfusion one-fifth the volume of blood loss after MAP fell to 35 mmHg) of the same molecule?
A: 788 min

Q: And the “Ca++” value (α2 adrenergic receptors; Baseline)?
A: 1.15 ± 0.02

Q: What about the Hematocrit (α2 adrenergic receptors; Baseline) of the same molecule?
A: 54.67 ± 2.03

Q: And the “K+” value (α2 adrenergic receptors; Baseline)?
A: 2.73 ± 1.07

Q: And the Lactate (α2 adrenergic receptors; Baseline)?
A: 3.17 ± 0.24

Q: And the “Na+” value (α2 adrenergic receptors; Baseline)?
A: 134.33 ± 0.88

Q: What about the pCO2 (α2 adrenergic receptors; Baseline) of the same molecule?
A: 46.33 ± 1.67

Q: And the pH (α2 adrenergic receptors; Baseline)?
A: 7.34 ± 0.01

Q: And the pO2 (α2 adrenergic receptors; Baseline)?
A: 118.33 ± 6.77

Q: And the “Ca++” value (α2 adrenergic receptors; Hemorrhage)?
A: 1.22 ± 0.00

Q: What about the Hematocrit (α2 adrenergic receptors; Hemorrhage) of the same molecule?
A: 37.67 ± 2.33

Q: And the “K+” value (α2 adrenergic receptors; Hemorrhage)?
A: 5.73 ± 0.30

Q: And the Lactate (α2 adrenergic receptors; Hemorrhage)?
A: 10.10 ± 0.70

Q: What about the “Na+” value (α2 adrenergic receptors; Hemorrhage) of the same molecule?
A: 124.33 ± 1.86

Q: What about the pCO2 (α2 adrenergic receptors; Hemorrhage) of the same molecule?
A: 27.33 ± 1.20

Q: And the pH (α2 adrenergic receptors; Hemorrhage)?
A: 7.24 ± 0.02

Q: What about the pO2 (α2 adrenergic receptors; Hemorrhage) of the same molecule?
A: 124.00 ± 4.73

Q: And the “Ca++” value (α2 adrenergic receptors; Resuscitation 30 min)?
A: 1.17 ± 0.02

Q: What about the Hematocrit (α2 adrenergic receptors; Resuscitation 30 min) of the same molecule?
A: 33.00 ± 1.53

Q: And the “K+” value (α2 adrenergic receptors; Resuscitation 30 min)?
A: 4.73 ± 0.09

Q: And the Lactate (α2 adrenergic receptors; Resuscitation 30 min)?
A: 5.80 ± 0.32

Q: And the “Na+” value (α2 adrenergic receptors; Resuscitation 30 min)?
A: 130.00 ± 0.08

Q: What about the pCO2 (α2 adrenergic receptors; Resuscitation 30 min) of the same molecule?
A: 33.00 ± 0.58

Q: What about the pH (α2 adrenergic receptors; Resuscitation 30 min) of the same molecule?
A: 7.29 ± 0.01

Q: What about the pO2 (α2 adrenergic receptors; Resuscitation 30 min) of the same molecule?
A: 124.00 ± 4.51

Q: And the “Ca++” value (α2 adrenergic receptors; Resuscitation 60 min)?
A: 1.18 ± 0.03

Q: And the Hematocrit (α2 adrenergic receptors; Resuscitation 60 min)?
A: 32.67 ± 1.76

Q: And the “K+” value (α2 adrenergic receptors; Resuscitation 60 min)?
A: 4.60 ± 0.00

Q: And the Lactate (α2 adrenergic receptors; Resuscitation 60 min)?
A: 4.53 ± 0.38

Q: And the “Na+” value (α2 adrenergic receptors; Resuscitation 60 min)?
A: 128.00 ± 1.00

Q: What about the pCO2 (α2 adrenergic receptors; Resuscitation 60 min) of the same molecule?
A: 33.33 ± 0.33

Q: What about the pH (α2 adrenergic receptors; Resuscitation 60 min) of the same molecule?
A: 7.31 ± 0.01

Q: And the pO2 (α2 adrenergic receptors; Resuscitation 60 min)?
A: 121.67 ± 4.63

Q: What about the “Ca++” value (α2 adrenergic receptors; Resuscitation 120 min) of the same molecule?
A: 1.18 ± 0.01

Q: And the Hematocrit (α2 adrenergic receptors; Resuscitation 120 min)?
A: 33.67 ± 2.03

Q: What about the “K+” value (α2 adrenergic receptors; Resuscitation 120 min) of the same molecule?
A: 5.17 ± 0.15

Q: And the Lactate (α2 adrenergic receptors; Resuscitation 120 min)?
A: 5.67 ± 0.22

Q: And the “Na+” value (α2 adrenergic receptors; Resuscitation 120 min)?
A: 130.33 ± 0.33

Q: What about the pCO2 (α2 adrenergic receptors; Resuscitation 120 min) of the same molecule?
A: 29.00 ± 1.15

Q: And the pH (α2 adrenergic receptors; Resuscitation 120 min)?
A: 7.28 ± 0.01

Q: What about the pO2 (α2 adrenergic receptors; Resuscitation 120 min) of the same molecule?
A: 132.00 ± 6.69

Q: What about the blood flow (dog femoral artery) of the same molecule?
A: increased blood flow
